In patent US20130096100A1, “DI(ARYLAMINO)ARYL COMPOUND” (ASTELLAS PHARMA INC., priority 2007, published 2013):

Key:
[1] = molecular target: T1, EML4-ALK fusion protein v1 (Homo sapiens, UniProt Q9UM73, D1529E/I1461V/K1491R); assay: Inhibitory activity against the kinase activity of EML4-ALK fusion protein v1 (Test Example 1); format: biochemical; settings: ATP 100 μM, reaction 1 hour, HTRF KinEASE-TK
T1 construct: FLAG (N); made in house
Method: EML4-ALK fusion protein v1 (purified from BA/F3 cells expressing EML4-ALK fusion protein v1) was investigated for its phosphorylation activity toward a peptide substrate by using a kinase activity detection kit (HTRF KinEASE-TK; Cisbio Inc.). […] The ATP concentration used was 100 μM. Another reaction solution was prepared to contain the enzyme protein but no test compound (in which the solvent DMSO alone was added at 0.4% in place of the test compound), followed by reaction in the same manner with or without ATP addition. […] The concentration causing 50% inhibition (IC50) was calculated for each test compound by the logistic regression method.
(§1) N-terminally FLAG-tagged EML4-ALK fusion protein v1 was inserted into a vector pMX-iresCD8 capable of co-expression of insert cDNA and cell surface antigen CD8 (J. Biol. Chem., 2001, vol. 276, p. 39012-39020) to create a vector FLAG-EML4-ALKv1/pMX-iresCD8 expressing both FLAG-EML4-ALKv1 and CD8. FLAG-EML4-ALKv1/pMX-iresCD8 was used to create a recombinant retrovirus in the same manner as described above and infected into mouse lymphoid cell line BA/F3 cells. Using a magnetic bead reagent for cell separation and a purification column (anti-CD8 monoclonal antibody immobilized on magnetic beads and a MiniMACS purification column; both are products of Miltenyi Biotec Inc.), cell surface CD8-expressing cells were purified conveniently. […] After washing 3 times with PBS, the cells were lysed in a lysis solution (50 mM Tris.HCl (pH 7.4), 150 mM NaCl, 1% Triton X100, 5 mM EDTA, 5 mM EGTA, 1 mM NaVO4, 1 mM DTT and protease inhibitor cocktail complete). The EML4-ALK fusion protein v1 present in the supernatant obtained after centrifugation was purified using ANTI-FLAG M2 Affinity Gel (SIGMA-ALDRICH Inc.) according to the method described in the product information document.
(§2) The EML4-ALK fusion protein v1 purified as above was investigated for its phosphorylation activity toward a peptide substrate using a kinase activity detection kit (HTRF KinEASE-TK; Cisbio Inc.). Using TK substrate 1, which was included in the kit, as the substrate, and after adding no ATP or 100 μM ATP, the mixtures were reacted at room temperature for 1 hour, and the count of HTRF was detected as recommended by the Kits manufacturer.

[2] = tested on: human non-small cell lung cancer cell line NCI-H2228 cells (EML4-ALK fusion protein-expressing cells); assay: Inhibitory effect against anchorage-independent cell growth of NCI-H2228 cells (Test Example 3); format: cell-based; settings: 120 h, spheroid plate, 5 days, CellTiter-Glo
From the text: Measurement for anchorage-independent cell growth (colony method, etc) has been known to be a system for investigating the anticancer action (pharmacological effect) of test compounds (Clinical Oncology, second edition, Cancer and Chemotherapy Publishers Inc.). In place of the colony method, there is a following method using spheroid plates for measuring the growth of non-attached cells.
(§3) In a 96-well spheroid plate (Sumilon Celltight Spheroid 96U; Sumitomo Bakelite Co., Ltd., Japan), human non-small cell lung cancer cell line NCI-H2228 cells were seeded at 2000 cells per well in RPMI1640 medium (Invitrogen) containing 10% fetal bovine serum. NCI-H2228 cells are those expressing another EML4-ALK fusion protein, which is different from the EML4-ALK fusion protein v1 because it is encoded by an EML4-ALK fusion polynucleotide whose fusion point on EML4 cDNA is different from that of the EML4-ALK fusion polynucleotide v1, but whose ALK region is the same as that of the EML4-ALK fusion polynucleotide v1. The above NCI-H2228 cells seeded in the plate were cultured overnight under 5% CO2 at 37° C., followed by addition of a test compound (final concentration: 10 μM to 1 nM). As a negative control, DMSO used as a solvent was added at the same concentration as the test compound. Then, the cells were cultured under 5% CO2 at 37° C. for 5 days. A cell counting reagent (CellTiter-Glo™ Luminescent Cell Viability Assay; Promega) was added and agitated for 20 minutes, followed by measurement with a luminometer (ML3000 microtiter plate luminometer; Dynatech Laboratories).

[3] = tested on: human non-small cell lung cancer cell line HCC827 cells (mutant EGFR protein-expressing cells); assay: Inhibitory effect against anchorage-independent cell growth of HCC827 cells (Test Example 4); format: cell-based; settings: 120 h, spheroid plate, 5 days, CellTiter-Glo
Method: as §3
Evaluation of Inhibitory Effect Against Anchorage-Independent Cell Growth of Human Non-Small Cell Lung Cancer Cell Line HCC827 Cells (Mutant EGFR (with Partial Deletion of Exon 19 in EGFR) Protein-Expressing Cells, American Type Culture Collection)
Evaluation was performed in the same manner as shown in Test Example 3.

[4] = molecular target: T1, EML4-ALK fusion protein v1; assay: Inhibitory effect of compounds against the in vitro kinase activity of EML4-ALK fusion protein v1, IC50 (Test Example 14); format: biochemical; settings: 8 concentrations 1000 nM to 0.3 nM
Method: In the same manner as shown in Test Example 12(3), compounds were investigated for their inhibitory effect against the in vitro kinase activity of EML4-ALK fusion protein v1 using the kinase activity detection kit mentioned above. Test compounds were each added to a reaction solution containing the EML4-ALK fusion protein v1 to give 8 final concentrations from 1000 nM to 0.3 nM, followed by addition of ATP. Another reaction solution was prepared to contain the EML4-ALK fusion protein v1 but no test compound (in which the solvent DMSO alone was added at 0.4% in place of the test compound), followed by reaction with or without ATP addition. The rest of the operations were carried out as described in Test Example 12(2). […] The concentration causing 50% inhibition (IC50) was calculated for each test compound by the logistic regression method.

[5] = Toxicity test in rats, 7-day repeated oral administration (Test Example 5); format: in vivo, SD rats; settings: 7 days; for Dose: Bone marrow inhibition / Dose: Exacerbation of common symptoms / Non-toxic dose: oral; for Dose: Moribund condition: SD, rat, in vivo, po
From the text: Test compounds were each suspended in a 0.5% aqueous methylcellulose solution and repeatedly administered to SD rats (two females and four males in each group) by the oral route at each dose for 7 days.

MER = molecular target: T2, MER (Homo sapiens, UniProt Q12866); assay: Kinase inhibition profiling, MER (Test Example 6); format: biochemical; settings: 100 nM; read-out: inhibitory activity against MER
T2 construct: purchased Carna Biosciences Inc., Japan (contract measurement)
T2 sequence (Q12866 21-999): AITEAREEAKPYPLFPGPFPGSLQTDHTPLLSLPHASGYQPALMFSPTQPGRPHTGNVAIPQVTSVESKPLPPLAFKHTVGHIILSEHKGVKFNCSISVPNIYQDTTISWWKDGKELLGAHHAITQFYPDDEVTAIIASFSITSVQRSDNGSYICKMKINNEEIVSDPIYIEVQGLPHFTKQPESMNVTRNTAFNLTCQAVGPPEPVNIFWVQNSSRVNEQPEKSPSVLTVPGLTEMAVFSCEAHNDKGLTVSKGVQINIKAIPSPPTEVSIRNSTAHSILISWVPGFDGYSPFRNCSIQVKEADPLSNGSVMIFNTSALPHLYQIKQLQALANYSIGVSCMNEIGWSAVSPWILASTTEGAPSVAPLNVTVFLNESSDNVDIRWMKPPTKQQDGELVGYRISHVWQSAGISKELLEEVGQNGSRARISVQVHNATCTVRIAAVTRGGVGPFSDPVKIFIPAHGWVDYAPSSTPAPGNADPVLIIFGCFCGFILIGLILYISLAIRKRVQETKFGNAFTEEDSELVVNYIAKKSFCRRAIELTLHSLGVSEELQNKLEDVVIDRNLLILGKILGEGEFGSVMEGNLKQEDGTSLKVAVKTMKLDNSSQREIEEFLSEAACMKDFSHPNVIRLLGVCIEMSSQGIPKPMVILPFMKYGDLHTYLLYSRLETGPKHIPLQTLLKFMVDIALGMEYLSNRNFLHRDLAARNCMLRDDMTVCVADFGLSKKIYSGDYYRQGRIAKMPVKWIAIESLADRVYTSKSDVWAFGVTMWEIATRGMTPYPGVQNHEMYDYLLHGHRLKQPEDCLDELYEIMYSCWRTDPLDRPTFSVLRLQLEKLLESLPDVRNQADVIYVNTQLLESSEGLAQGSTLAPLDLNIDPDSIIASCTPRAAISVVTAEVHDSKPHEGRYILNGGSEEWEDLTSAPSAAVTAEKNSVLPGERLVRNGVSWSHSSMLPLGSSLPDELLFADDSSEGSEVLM

[6] = tested on: HCC-827 cells (mutant EGFR protein-expressing cells); settings: conditions of Non-patent Document 6; cited from earlier work
MNK1 = molecular target: T3, MNK1 (Homo sapiens, UniProt Q9BUB5); assay: Kinase inhibition profiling, MNK1 (Test Example 6); format: biochemical; settings: 100 nM; read-out: inhibitory activity against MNK1
T3 construct: purchased Carna Biosciences Inc., Japan (contract measurement)

88 types of kinases = assay: Kinase inhibition profiling, 88 types of kinases (Test Example 6); format: biochemical; settings: concentration of 100 nM
MUSK = molecular target: T4, MUSK (Homo sapiens, UniProt O15146); assay: Kinase inhibition profiling, MUSK (Test Example 6); format: biochemical; parameters: purchased Carna Biosciences Inc., Japan (contract measurement); settings: 100 nM; read-out: inhibitory activity against MUSK
T4 sequence (O15146 24-869): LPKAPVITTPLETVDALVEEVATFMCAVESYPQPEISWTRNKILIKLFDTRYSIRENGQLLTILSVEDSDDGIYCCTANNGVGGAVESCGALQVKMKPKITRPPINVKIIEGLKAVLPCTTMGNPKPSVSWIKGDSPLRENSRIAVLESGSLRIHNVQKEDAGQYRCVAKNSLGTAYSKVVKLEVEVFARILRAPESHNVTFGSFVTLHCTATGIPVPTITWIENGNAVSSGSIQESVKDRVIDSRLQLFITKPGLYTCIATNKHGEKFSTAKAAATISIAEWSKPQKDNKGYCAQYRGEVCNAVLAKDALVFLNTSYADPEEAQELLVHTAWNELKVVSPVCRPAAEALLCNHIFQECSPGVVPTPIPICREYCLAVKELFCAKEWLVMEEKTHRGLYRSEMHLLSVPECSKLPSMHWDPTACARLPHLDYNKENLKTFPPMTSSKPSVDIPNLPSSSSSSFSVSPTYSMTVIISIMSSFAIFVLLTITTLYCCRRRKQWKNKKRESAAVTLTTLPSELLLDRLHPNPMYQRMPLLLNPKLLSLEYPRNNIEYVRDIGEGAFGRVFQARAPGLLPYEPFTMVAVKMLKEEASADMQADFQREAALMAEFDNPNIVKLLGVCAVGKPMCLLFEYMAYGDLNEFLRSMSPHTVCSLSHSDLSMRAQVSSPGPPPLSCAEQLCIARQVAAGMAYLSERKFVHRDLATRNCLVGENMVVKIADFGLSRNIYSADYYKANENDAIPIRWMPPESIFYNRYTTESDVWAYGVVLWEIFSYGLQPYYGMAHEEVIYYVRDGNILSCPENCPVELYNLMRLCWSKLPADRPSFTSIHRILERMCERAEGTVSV

[7] = tested on: v1 expressing 3T3 cells (tumor); assay: Antitumor effect on v1 expressing 3T3 cells inoculated in nude mice (Test Example 13); format: in vivo; settings: once a day for 10 days, started 6 days after inoculation, BALB/c nude mice
Method: 3×10^6 cells of v1 expressing 3T3 cells suspended in PBS were inoculated subcutaneously by injection to the back of 5 weeks old male BALB/c nude mice (Charles River Japan, Inc.). […] Administrations were performed once a day for 14 days, and body weight and tumor size were measured every other day. Tumor volume was calculated using the following formula.
[Tumor volume (mm^3)]=[Tumor major axis (mm)]×[tumor minor axis (mm)]^2×0.5
The antitumor effect of compound D was investigated by the similar procedure with the following exceptions. The administration of the compound was started after 6 days of the inoculation and carried out once a day for 10 days.

[8] = molecular target: T1, EML4-ALK fusion protein v1; assay: Inhibitory effect of compounds against the in vitro kinase activity of EML4-ALK fusion protein v1, single concentration (Test Example 12(3)); format: biochemical; settings: final concentration 10 nM
From the text: as §1, §2

T1 sequence (Q9UM73 with tags, fused parts or gaps I1461V/K1491R/D1529E): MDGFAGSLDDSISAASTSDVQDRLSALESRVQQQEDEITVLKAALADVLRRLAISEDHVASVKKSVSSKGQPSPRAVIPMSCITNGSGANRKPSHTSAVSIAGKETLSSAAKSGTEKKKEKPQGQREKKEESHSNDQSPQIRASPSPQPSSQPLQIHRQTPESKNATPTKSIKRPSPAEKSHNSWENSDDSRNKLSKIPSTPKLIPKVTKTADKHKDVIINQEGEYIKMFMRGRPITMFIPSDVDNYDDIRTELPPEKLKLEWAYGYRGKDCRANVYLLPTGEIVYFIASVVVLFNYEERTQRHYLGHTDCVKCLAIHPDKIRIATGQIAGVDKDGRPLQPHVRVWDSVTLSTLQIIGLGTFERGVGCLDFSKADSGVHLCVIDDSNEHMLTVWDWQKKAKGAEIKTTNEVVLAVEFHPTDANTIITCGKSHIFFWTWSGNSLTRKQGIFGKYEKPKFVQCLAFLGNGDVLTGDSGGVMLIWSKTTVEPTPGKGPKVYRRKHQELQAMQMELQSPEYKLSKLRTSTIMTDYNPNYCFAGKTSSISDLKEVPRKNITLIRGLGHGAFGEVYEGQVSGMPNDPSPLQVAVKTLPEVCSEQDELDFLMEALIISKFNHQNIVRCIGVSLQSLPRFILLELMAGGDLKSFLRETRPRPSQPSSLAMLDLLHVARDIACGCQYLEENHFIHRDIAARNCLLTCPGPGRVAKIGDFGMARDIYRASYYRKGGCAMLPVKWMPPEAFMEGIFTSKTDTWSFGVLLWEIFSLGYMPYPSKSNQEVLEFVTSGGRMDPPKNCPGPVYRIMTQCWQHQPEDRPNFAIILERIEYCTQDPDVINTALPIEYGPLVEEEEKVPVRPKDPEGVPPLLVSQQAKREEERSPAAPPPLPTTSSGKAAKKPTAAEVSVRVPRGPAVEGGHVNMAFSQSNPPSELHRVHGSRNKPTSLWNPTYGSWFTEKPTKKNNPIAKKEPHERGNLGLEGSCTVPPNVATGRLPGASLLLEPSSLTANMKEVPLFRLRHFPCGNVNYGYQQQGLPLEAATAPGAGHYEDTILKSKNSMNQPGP
T3 sequence (Q9BUB5 whole entry): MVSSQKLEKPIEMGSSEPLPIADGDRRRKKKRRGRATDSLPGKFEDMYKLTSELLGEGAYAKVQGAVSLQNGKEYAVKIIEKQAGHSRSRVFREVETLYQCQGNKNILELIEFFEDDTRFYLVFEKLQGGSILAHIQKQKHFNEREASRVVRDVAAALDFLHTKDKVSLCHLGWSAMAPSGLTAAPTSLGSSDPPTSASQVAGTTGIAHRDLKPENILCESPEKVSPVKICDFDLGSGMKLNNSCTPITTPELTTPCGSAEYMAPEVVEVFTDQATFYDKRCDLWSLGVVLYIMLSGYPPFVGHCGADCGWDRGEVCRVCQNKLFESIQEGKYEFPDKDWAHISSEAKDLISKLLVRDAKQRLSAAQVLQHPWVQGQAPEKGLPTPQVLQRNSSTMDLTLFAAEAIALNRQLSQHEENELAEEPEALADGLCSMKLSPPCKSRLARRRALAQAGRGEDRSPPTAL

Row | IC50 [1] [nM] | IC50 [4] [nM] | inhibition at 0.01 µM [8] [%] | Structure (SMILES) | IC50 [2] [nM] | IC50 [3] [nM] | Dose: Bone marrow inhibition ([5]; female SD rats (2 rats)) [mg/kg] | Dose: Exacerbation of common symptoms ([5]; female SD rats (2 rats)) [mg/kg] | Non-toxic dose ([5]; female SD rats (2 rats)) [mg/kg] | Dose: Moribund condition ([5]; female) [mg/kg] | Dose: Bone marrow inhibition ([5]; male SD rats (4 rats)) [mg/kg] | Dose: Exacerbation of common symptoms ([5]; male SD rats (4 rats)) [mg/kg] | Non-toxic dose ([5]; male SD rats (4 rats)) [mg/kg] | Dose: Moribund condition ([5]; male) | inhibition at 0.1 µM (MER) [%] | growth inhibitory activity, inhibition rate [6] [%] | inhibition at 0.1 µM (MNK1) [%] | number of types of kinases (of 88) with 50% or more inhibitory activity (88 types of kinases) | inhibition at 0.1 µM (MUSK) [%] | inhibition of the growth of v1 expressing 3T3 cells (tumor) [7] [%]
1 | 42 | 42 |  | COc1cc(N2CCC(N3CCN(C)CC3)CC2)ccc1Nc1nc(Nc2ccccc2S(=O)(=O)C(C)C)c2ccccc2n1 [Example 1, N^4-[2-(isopropylsulfonyl)phenyl]-N^2-{2-methoxy-4-[4-(4-methylpiperazin-1-yl)piperidin-1-yl]phenyl}quinazoline-2,4-diamine] | 473 | 2510 |  |  |  |  |  |  |  |  |  |  |  |  |  | 
2 |  |  |  | COc1cc(N2CCC(N3CCN(C)CC3)CC2)ccc1Nc1ncc(Cl)c(Nc2ccccc2S(=O)(=O)C(C)C)n1 [TAE684, 5-chloro-N^4-[2-(isopropylsulfonyl)phenyl]-N^2-{2-methoxy-4-[4-(4-methylpiperazin-1-yl)piperidin-1-yl]phenyl}pyrimidine-2,4-diamine, reference compound] | 8.5 | 301 | 10 | 30 | 3 | 100 | 10 | 100 | 3 | (>100) mg/kg | ≥ 90 | 7.5 | 4.8 | 29 types of kinases | ≥ 90 | 
3 |  |  | 99 | CNS(=O)(=O)c1ccccc1Nc1nc(Nc2ccc(N3CCN(C)CC3)cc2OC)ncc1Br [Compound D, 2-[(5-bromo-2-{[2-methoxy-4-(4-methylpiperazin-1-yl)phenyl]amino}pyrimidin-4-yl)amino]-N-methylbenzenesulfonamide] |  |  |  |  |  |  |  |  |  |  |  |  |  |  |  | 101
